# According to patent US7015231B2, “Chemical compounds” (SmithKline Beecham Corporation, priority 2001, dated 2006):
# Molecular target: T1, TrkA (Homo sapiens, UniProt P04629)
# T1 construct: The enzyme is a GST-fusion of the intracellular domain expressed in SF9 cells; GST; purchased Regeneron; host or cells: SF9 cells
# Test: TrkA substrate phosphorylation assay (tyrosine kinase activity, synthetic peptide substrate, 33P-ATP, p81 filter plates)
# Type: biochemical
# Conditions: GST-fusion of the TrkA intracellular domain, 30 uM ATP, 50 uM Src peptide, RT for 120′
# Method: Substrate phosphorylation assays were carried out as follows:
# The enzyme is a GST-fusion of the intracellular domain expressed in SF9 cells. The enzyme is expressed and purified by Regeneron. The enzyme is preincubated with cold ATP and Mg to allow autophosphorylation prior to running the screen. […] The assay is performed in 96 well microtitre plates, and reaction products are detected following filtration through millipore p81 phosphocellulose plates.
# T1 sequence (P04629 440-796 limits assumed, species assumed): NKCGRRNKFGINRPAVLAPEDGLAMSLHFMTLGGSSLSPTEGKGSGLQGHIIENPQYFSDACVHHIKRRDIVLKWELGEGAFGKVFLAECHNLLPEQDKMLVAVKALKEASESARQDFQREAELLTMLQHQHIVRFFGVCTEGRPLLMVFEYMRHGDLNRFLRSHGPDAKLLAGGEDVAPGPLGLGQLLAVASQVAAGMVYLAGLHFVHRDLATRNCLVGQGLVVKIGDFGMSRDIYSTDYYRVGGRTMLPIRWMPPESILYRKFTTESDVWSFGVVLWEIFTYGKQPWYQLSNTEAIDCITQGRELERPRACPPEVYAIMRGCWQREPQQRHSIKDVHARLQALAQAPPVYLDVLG
row,IC50,SMILES
1,< 10 nM,"COc1ccccc1-c1cc(C=C2C(=O)Nc3ncc(Br)cc32)cc(Br)c1O [Example 1, 3-(3-Bromo-4-hydroxy-5-(2′methoxyphenyl)-benzylidene)-5-bromo-1,3-dihydro-pyrrolo[2,3-b]pyridin-2-one]"
2,10 to 250 nM,O=C1Nc2cccnc2C1=Cc1c[nH]c2ccccc12 [Example 3]
3,< 10 nM,Cn1cc(C=C2C(=O)Nc3ncccc32)c2ccccc21 [Example 4]
4,< 10 nM,O=C1Nc2ncccc2C1=Cc1c[nH]c2ccccc12 [Example 5]
